The source of these data is PubChem BioAssay (NCI).

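Five concentrations, 48 hours, 96-well plates. The concentration for 50% growth inhibition is given as GI50. At the TGI there is no net growth.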

Among the test systems are CAKI-1 renal; HOP-62 NSCLC; NCI-H460 lung; SK-MEL-28 melanoma; CCRF-CEM leukemia; SN12C renal; SF-539 CNS; U251 CNS; HOP-92 NSCLC; HL-60(TB) leukemia.
Holding throughout (test): NCI-60 cell line screen, 48 h

In the case of `CC1=C2[C@@H](CC1)[C@]1(C)O[C@@](C(C)C)(C[C@H]1OC(=O)CO)[C@H]2OC(=O)C1CC1c1ccccc1` (some centres undefined), the GI50 in the assay with CAKI-1 renal was 11.4 µM; with HOP-62 NSCLC, 15.2 µM; with NCI-H460 lung, 14.5 µM; with SK-MEL-28 melanoma, 16.8 µM; in the assay with CCRF-CEM leukemia it was 16.2 µM; with SN12C renal, 9.36 µM. Moreover, the GI50 in the assay with SF-539 CNS was 17.1 µM; with U251 CNS, 14.8 µM; with HOP-92 NSCLC, 11.8 µM; in the assay on HL-60(TB) leukemia, 15 µM. The TGI was determined as 24 µM with CAKI-1 renal; 29.7 µM with HOP-62 NSCLC; 32.2 µM in the assay with NCI-H460 lung; 34.6 µM with SK-MEL-28 melanoma; 39.1 µM in the assay with CCRF-CEM leukemia; 27.6 µM in the assay on SN12C renal. Moreover, the TGI amounted to 33.8 µM in the assay with SF-539 CNS, 28.6 µM in the assay on U251 CNS, 24.6 µM with HOP-92 NSCLC and 38 µM with HL-60(TB) leukemia.
Take `CC(N)(Cc1c[nH]c2cccc(F)c12)C(=O)O` (centres undefined): the GI50 is greater than 1000 µM with CAKI-1 renal; 645 µM in the assay with HOP-62 NSCLC; greater than 1000 µM with NCI-H460 lung; greater than 1000 µM in the assay on SK-MEL-28 melanoma; greater than 1000 µM in the assay with CCRF-CEM leukemia; greater than 1000 µM with SN12C renal. The GI50 in the assay with SF-539 CNS, with U251 CNS and in the assay on HL-60(TB) leukemia was greater than 1000 µM each time. The TGI with CAKI-1 renal, in the assay on HOP-62 NSCLC, with NCI-H460 lung, in the assay on SK-MEL-28 melanoma, with CCRF-CEM leukemia and in the assay on SN12C renal was greater than 1000 µM throughout. Further, the TGI in the assay on SF-539 CNS, in the assay on U251 CNS, in the assay on HOP-92 NSCLC and in the assay on HL-60(TB) leukemia was greater than 1000 µM each time.
Consider `CC1=C(/C=C/C(C)=C/C2CC(N(C)C)=CC(=O)O2)C(C)(C)CCC1` (centres undefined), for which the TGI in the assay with CAKI-1 renal is 37.1 µM; in the assay with HOP-62 NSCLC, 31 µM; in the assay with NCI-H460 lung it was 42.4 µM; in the assay on SK-MEL-28 melanoma, 30.9 µM; in the assay on CCRF-CEM leukemia it was 22.3 µM; in the assay on SN12C renal, 29.2 µM. The TGI came to 30.2 µM in the assay with SF-539 CNS, 28.7 µM in the assay on U251 CNS, 31.1 µM in the assay with HOP-92 NSCLC and 16 µM in the assay on HL-60(TB) leukemia.
As for `Nc1ccc(C(=O)N/C(=C\c2cccc([N+](=O)[O-])c2)c2nc3[nH]c(=S)[nH]c(=O)c3[nH]2)cc1`, the TGI is greater than 100 µM in the assay with CAKI-1 renal; 45.6 µM in the assay with HOP-62 NSCLC; greater than 100 µM in the assay with NCI-H460 lung; greater than 100 µM in the assay with SK-MEL-28 melanoma; greater than 100 µM in the assay with CCRF-CEM leukemia; greater than 100 µM in the assay with SN12C renal. Further, the TGI in the assay on SF-539 CNS is 67 µM; in the assay on U251 CNS, greater than 85.6 µM; in the assay on HOP-92 NSCLC it was 64.9 µM; with HL-60(TB) leukemia, greater than 100 µM.
With `COc1ccc2c(c1)c(-c1nc(-c3c[nH]c4ccncc34)cs1)cn2C`, the GI50 was 1.64 µM in the assay with CAKI-1 renal; 1.82 µM in the assay on HOP-62 NSCLC; 1.73 µM in the assay with NCI-H460 lung; 1.63 µM in the assay on SK-MEL-28 melanoma; 1.83 µM in the assay on CCRF-CEM leukemia; 1.69 µM in the assay with SN12C renal. Further, the GI50 was 1.65 µM in the assay on SF-539 CNS, 1.87 µM with U251 CNS, 1.64 µM in the assay with HOP-92 NSCLC and 1.68 µM with HL-60(TB) leukemia. For the same molecule, the TGI worked out at 3.03 µM in the assay on CAKI-1 renal; 3.45 µM in the assay with HOP-62 NSCLC; 3.31 µM in the assay with NCI-H460 lung; 3.04 µM with SK-MEL-28 melanoma; 3.64 µM in the assay on CCRF-CEM leukemia; 3.24 µM in the assay with SN12C renal. The TGI in the assay with SF-539 CNS amounted to 3.09 µM; in the assay with U251 CNS it was 3.3 µM; in the assay on HOP-92 NSCLC it was 3.33 µM; with HL-60(TB) leukemia, 3.5 µM.
Consider `c1ccc2c3c([nH]c2c1)[C@H]1C2CCCCN2CN1CC3` (some centres undefined), for which the TGI with CAKI-1 renal, in the assay with HOP-62 NSCLC, with NCI-H460 lung, in the assay on SK-MEL-28 melanoma, with CCRF-CEM leukemia and in the assay on SN12C renal was greater than 100 µM throughout. Moreover, the TGI in the assay with SF-539 CNS, in the assay with U251 CNS, in the assay on HOP-92 NSCLC and in the assay on HL-60(TB) leukemia was greater than 100 µM throughout.
For the molecule `CCC(C)[C@H](NC(=O)Nc1cc(C(F)(F)F)cc(C(F)(F)F)c1)C(=O)N[C@@H](Cc1cn(C)cn1)C(=O)OC` (some centres undefined), the GI50 is 2.08 µM with CAKI-1 renal; 0.919 µM in the assay with HOP-62 NSCLC; 0.895 µM with NCI-H460 lung; 0.572 µM in the assay with SK-MEL-28 melanoma; 0.0146 µM in the assay with CCRF-CEM leukemia; 0.544 µM in the assay on SN12C renal. Besides, the GI50 is 1.32 µM in the assay with SF-539 CNS, 1.33 µM in the assay on U251 CNS, 1.31 µM in the assay on HOP-92 NSCLC and 1.35 µM with HL-60(TB) leukemia. In addition, the TGI is 4 µM in the assay with CAKI-1 renal; 1.82 µM in the assay with HOP-62 NSCLC; 1.89 µM with NCI-H460 lung; 1.1 µM in the assay with SK-MEL-28 melanoma; 1.45 µM in the assay on CCRF-CEM leukemia; 1.05 µM in the assay with SN12C renal. Further, the TGI in the assay on SF-539 CNS stood at 1.83 µM; in the assay with U251 CNS, 1.8 µM; with HOP-92 NSCLC, 1.89 µM; in the assay with HL-60(TB) leukemia, 3.22 µM.
